Data on eight compounds can be found in patent US7517902B2, “Substituted indazoles, compositions containing the same, and the preparation and use thereof” (Aventis Pharma S.A., priority 2004, dated 2009).

Common to all, as to assay type: biochemical
One experiment concerns the target T1, Aurora2 (Homo sapiens, UniProt O14965).
T1 construct: Aurora 2: whole recombinant protein comprising an N-terminal histidine tail; His tag (histidine tail) (N); made in house; host or cells: E. coli
T1 sequence (O14965 1-403): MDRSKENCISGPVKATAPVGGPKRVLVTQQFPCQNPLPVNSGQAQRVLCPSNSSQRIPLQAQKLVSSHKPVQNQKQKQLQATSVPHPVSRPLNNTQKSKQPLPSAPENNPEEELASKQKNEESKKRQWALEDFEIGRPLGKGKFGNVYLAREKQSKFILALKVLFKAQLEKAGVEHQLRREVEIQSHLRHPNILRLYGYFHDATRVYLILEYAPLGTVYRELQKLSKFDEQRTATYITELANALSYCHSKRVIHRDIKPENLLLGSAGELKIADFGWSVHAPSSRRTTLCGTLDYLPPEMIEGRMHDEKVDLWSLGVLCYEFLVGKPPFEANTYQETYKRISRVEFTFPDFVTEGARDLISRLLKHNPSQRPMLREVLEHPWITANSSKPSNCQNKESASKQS
In words: Aurora2 enzyme assay, NuMA substrate phosphorylation (Flashplate). The note with it: read-out: IC 50 Aurora2. The procedure: The inhibitory effect of compounds with respect to the kinases Aurora1 and Aurora2 is determined by an enzyme assay employing radioactivity detection.
The kinase activity of Aurora 1 and Aurora 2 is evaluated by the phosphorylation of the substrate Numa-histidine in the presence of radiolabeled ATP ([^33P]ATP), using 96-well Flashplate plates in which nickel chelate is fixed to the surface of the microplate. The amount of ^33P phosphate incorporated in the NuMA substrate is proportional to the activity of the enzyme Aurora1 or Aurora2.
The proteins are produced in the protein production laboratory of the SanofiAventis group.
Aurora 2: whole recombinant protein comprising an N-terminal histidine tail, expressed in E. coli and purified to more than 82%.
NuMA (nuclear protein that associates with the mitotic apparatus) fragment of 424 amino acids, expressed in E. coli, whose N-terminal end has been labeled with histidine and used as a substrate for the two Aurora enzymes.
The microplates used are 96-well Flash-Plate plates with nickel chelate (Perkin Elmer, model SMP107).
The products for evaluation are incubated in a reaction volume of 100 μL per well in the presence of 10 nM of Aurora 1 or Aurora 2, 500 nM of NuMA substrate in a buffer composed of 50 mM of Tris/HCl (pH 7.5), 50 mM NaCl, 5 mM MgCl2 (Aurora-B) or 10 mM MgCl2 (Aurora-A) and 1 mM of DTT, at 37° C.
In each well, 80 μL of the enzyme/substrate incubation buffer are distributed, followed by 10 μL of the product to be evaluated, in variable concentrations. The reaction is initiated by adding 1 μM of final ATP containing 0.2 μCi of [^33P]ATP (10 μL). After 30 minutes of incubation, the reaction is terminated by simply removing the reaction buffer and each well is washed twice with 300 μl of the Tris/HCl buffer. The radioactivity is then measured in each well by means of a scintillation apparatus, Packard, Top count model.
The control enzyme activity of Aurora is expressed by the number of counts per minute obtained within 30 minutes, after deduction of the background noise (reaction mixture not containing the enzyme). The evaluation of the various test products is expressed in percentage inhibition of the Aurora activity relative to the control.

For the next experiment, the target named is T2, human KDR enzyme (Homo sapiens, UniProt P35968).
T2 construct: The cytoplasmic domain of the human KDR enzyme was cloned in the form of a GST fusion; GST; made in house; host or cells: SF21 insect cells (baculovirus, pFastBac)
T2 sequence (P35968 786-1356 limits assumed): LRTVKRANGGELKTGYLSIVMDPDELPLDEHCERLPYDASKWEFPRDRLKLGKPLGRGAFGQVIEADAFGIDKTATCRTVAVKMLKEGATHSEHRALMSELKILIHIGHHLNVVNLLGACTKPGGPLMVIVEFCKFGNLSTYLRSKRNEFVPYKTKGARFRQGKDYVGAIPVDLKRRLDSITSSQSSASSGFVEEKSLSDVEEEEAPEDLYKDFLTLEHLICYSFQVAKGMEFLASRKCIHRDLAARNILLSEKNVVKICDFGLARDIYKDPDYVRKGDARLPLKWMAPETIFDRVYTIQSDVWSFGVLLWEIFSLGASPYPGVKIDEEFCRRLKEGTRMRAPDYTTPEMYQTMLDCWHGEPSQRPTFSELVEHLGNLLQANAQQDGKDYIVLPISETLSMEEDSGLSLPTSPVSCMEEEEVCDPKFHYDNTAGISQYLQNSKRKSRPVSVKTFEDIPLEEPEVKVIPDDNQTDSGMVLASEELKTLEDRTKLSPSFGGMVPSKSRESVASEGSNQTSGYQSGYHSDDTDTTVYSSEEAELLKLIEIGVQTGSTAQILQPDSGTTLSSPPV
In words: KDR substrate phosphorylation assay (scintillation, 96-well plate). The procedure:
The inhibitory effect of the compounds is determined in an assay of substrate phosphorylation by the KDR enzyme in vitro using a scintillation technique (96-well plate, NEN).
The cytoplasmic domain of the human KDR enzyme was cloned in the form of a GST fusion into the baculovirus expression vector pFastBac. The protein was expressed in SF21 cells and purified to approximately 60% homogeneity.
The KDR kinase activity is measured in 20 mM MOPS, 10 mM MgCl2, 10 mM MnCl2, 1 mM DTT, 2.5 mM EGTA, 10 mM β-glycerophosphate, pH=7.2, in the presence of 10 mM MgCl2, 100 μM Na3VO4, 1 mM NaF. 10 μl of the compound are added to 70 μl of kinase buffer, containing 100 ng of KDR enzyme at 4° C. The reaction is triggered by adding 20 μl of solution containing 2 μg of substrate (SH2-SH3 fragment of PLCγ expressed in the form of a GST fusion protein), 2 μCi γ^33P[ATP] and 2 μM cold ATP. After 1 hour of incubation at 37° C., the reaction is stopped by adding 1 volume (100 μl) of 200 mM EDTA. The incubation buffer is withdrawn and the wells are washed three times with 300 μl of PBS. The radioactivity is measured in each well using a Top Count NXT radioactivity counter (Packard).
The background noise is determined by measuring the radioactivity in four different wells containing the radioactive ATP and the substrate alone.
A control for total activity is measured in four different wells containing all of the reagents (γ^33P-[ATP], KDR and PLCγ substrate), but in the absence of compound.
The inhibition of KDR activity with the compound of the invention is expressed in percentage inhibition of the control activity determined in the absence of compound.
The compound SU5614 (Calbiochem) (1 μM) is included in each plate as an inhibition control.

The target in the next experiment is T3, human Tie2 (Homo sapiens, UniProt Q02763).
T3 construct: amino acids of the intracellular domain 776-1124; made in house
T3 sequence (Q02763 776-1124): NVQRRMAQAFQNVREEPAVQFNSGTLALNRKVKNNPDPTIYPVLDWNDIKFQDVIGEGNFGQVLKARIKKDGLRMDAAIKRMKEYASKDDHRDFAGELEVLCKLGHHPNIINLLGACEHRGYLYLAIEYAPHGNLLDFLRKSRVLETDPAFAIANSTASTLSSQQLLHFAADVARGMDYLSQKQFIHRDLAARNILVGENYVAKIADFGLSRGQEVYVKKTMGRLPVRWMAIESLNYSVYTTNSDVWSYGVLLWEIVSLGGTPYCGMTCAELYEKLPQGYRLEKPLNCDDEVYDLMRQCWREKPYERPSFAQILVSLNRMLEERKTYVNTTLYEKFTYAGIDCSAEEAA
In words: Tie2 assay of PLC phosphorylation (FlashPlate). The note with it: read-out: IC 50 TIE2. The procedure:
The coding sequence of human Tie2, corresponding to the amino acids of the intracellular domain 776-1124, was generated by PCR, using the cDNA isolated from human placenta as a model. This sequence was introduced into a baculovirus expression vector pFastBacGT in the form of a GST fusion protein.
The inhibitory effect of the molecules is determined in an assay of PLC phosphorylation by Tie2 in the presence of GST-Tie2 purified to approximately 80% homogeneity. The substrate is composed of the SH2-SH3 fragments of PLC expressed in the form of a GST fusion protein.
The kinase activity of Tie2 is measured in a 20 mM MOPS buffer, pH 7.2, containing 10 mM MgCl2, 10 mM MnCl2, 1 mM DTT, 10 mM of glycerol-phosphate. In a 96-well FlashPlate plate, kept on ice, a reaction mixture is deposited which is composed of 70 μl of kinase buffer containing 100 ng of GST-Tie2 enzyme per well. Subsequently 10 μl of the test molecule diluted to a concentration of 10% maximum in DMvSO are added. For a given concentration, each measurement is carried out in quadruplicate. The reaction is initiated by adding 20 μl of solution containing 2 μg of GST-PLC, 2 μM of cold ATP and 1 μCi of ^33P[ATP]. After 1 hour of incubation at 37° C., the reaction is terminated by adding 1 volume (100 μl) of 200 mM EDTA. Following removal of the incubation buffer, the wells are washed three times with 300 μl of PBS. The radioactivity is measured on a Wallac MicroBeta 1450.
The inhibition of Tie2 activity is calculated and expressed as a percentage inhibition relative to the control activity determined in the absence of compound.

As for `Nc1n[nH]c2c(F)c(-c3ccc(NC(=O)Nc4cccc(C(F)(F)F)c4)cc3)ccc12` [Example 19, 1-[4-(3-Amino-7-fluoro-1H-indazol-6-yl)phenyl]-3-(3-trifluoromethylphenyl)urea], the figures for the IC50 at Aurora2, against human KDR enzyme and at human Tie2 were 92 nM, 329 nM and 231 nM, respectively.

On to `CC(C)(C)c1cc(NC(=O)Nc2ccc(-c3ccc4c(N)n[nH]c4c3F)cc2)no1` [Example 21, 1-[4-(3-Amino-7-fluoro-1H-indazol-6-yl)phenyl]-3-(5-tert-butylisoxazol-3-yl)urea], for which the IC50 at Aurora2 came out at 68 nM; against human KDR enzyme it was 85 nM; at human Tie2, 174 nM.

With `Nc1n[nH]c2c(F)c(-c3ccc(NC(=O)Nc4ccccc4F)cc3)ccc12` [Example 22, 1-[4-(3-Amino-7-fluoro-1H-indazol-6-yl)phenyl]-3-(2-fluorophenyl)urea], the IC50 was 143 nM at Aurora2, 1940 nM on human KDR enzyme and 5850 nM at human Tie2.

In the case of `Cc1cc(-c2ccc3c(NC(=O)c4ccsc4)n[nH]c3c2F)ccc1NC(=O)Nc1cc(C(F)(F)F)ccc1F` [Example 23, 1-(4-{7-Fluoro-3-[(thiophen-3-yl)carbonylamino]-1H-indazol-6-yl}-2-methylphenyl)-3-(2-fluoro-5-trifluoromethylphenyl)urea], the IC50 on Aurora2 was 296 nM; against human KDR enzyme, 15 nM; on human Tie2 it was 16 nM.

Turning to `Cc1ccc(-n2nc(C(C)(C)C)cc2NC(=O)Nc2ccc(-c3ccc4c(N)n[nH]c4c3F)cc2)cc1` [Example 25, 1-[4-(3-Amino-7-fluoro-1H-indazol-6-yl)phenyl]-3-(5-tert-butyl-2-p-tolyl-2H-pyrazol-3-yl)urea], the IC50 came to 94 nM at Aurora2, 11 nM on human KDR enzyme and 17 nM on human Tie2.

Turning to `O=C(Nc1ccc(-c2ccc3c(NC(=O)C4CCCN4)n[nH]c3c2F)cc1)Nc1cc(C(F)(F)F)ccc1F` [Example 26, 1-(4-{7-Fluoro-3-[(L-pyrrolidin-2-yl)carbonylamino]-1H-indazol-6-yl}phenyl)-3-(2-fluoro-5-trifluoromethylphenyl)urea], the IC50 on Aurora2 amounted to 3380 nM; at human KDR enzyme, 1050 nM; at human Tie2, 626 nM.

As to `CC(=O)Nc1n[nH]c2c(F)c(-c3ccc(NC(=O)Nc4cc(C(F)(F)F)ccc4F)cc3)ccc12` [Example 27, 1-(4-{7-Fluoro-3-acetylamino-1H-indazol-6-yl}phenyl)-3-(2-fluoro-5-trifluoromethylphenyl)urea], the IC50 on Aurora2 turned out to be 335 nM; at human KDR enzyme, 79 nM; at human Tie2 it was 143 nM.

Take `O=CNc1n[nH]c2c(F)c(-c3ccc(NC(=O)Nc4cc(C(F)(F)F)ccc4F)cc3)ccc12` [Example 28, 1-(4-(7-Fluoro-3-formylamino-1H-indazol-6-yl}phenyl)-3-(2-fluoro-5-tri-fluoromethylphenyl)urea]: the IC50 at Aurora2 turned out to be 520 nM; against human KDR enzyme it was 164 nM; at human Tie2, 176 nM.
